Results on one compound are retold here after BindingDB's records for doi:10.1016/j.bmc.2012.05.002 (Seoul National University, 2012).

The assay concerns the target T1, Sortase family protein (Staphylococcus aureus, UniProt Q9S446).
T1 sequence (Q9S446 whole entry): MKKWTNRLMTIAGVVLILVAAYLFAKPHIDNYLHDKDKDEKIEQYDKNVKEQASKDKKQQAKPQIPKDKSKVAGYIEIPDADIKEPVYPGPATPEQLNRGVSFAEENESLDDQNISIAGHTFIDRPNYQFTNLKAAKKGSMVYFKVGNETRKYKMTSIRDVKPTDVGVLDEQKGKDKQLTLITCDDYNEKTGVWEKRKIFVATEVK
As to the kind of experiment: Inhibition of Staphylococcus aureus ATCC 6538p recombinant SrtA.

Consider `O=C(O)c1cc[c]([Hg][OH])cc1`, for which the IC50 is 112 µM.
